Source: US20230151106A1, “OFATUMUMAB FOR TREATING MS WHILE MAINTAINING SERUM IgG” (NOVARTIS AG, priority 2020, published 2023)

How the values were obtained:
[1] = test system: CD19+ B-cells; experiment: CD19+ B-cell depletion in ASCLEPIOS; format: in vivo, human
Description: ASCLEPIOS I and II are double-blind, double-dummy, active comparator-controlled, parallel-group, innovative, adaptive design, multicentre trials. Patients were randomised (1:1) to receive either ofatumumab 20 mg sc injections every 4 weeks (after an initial loading regimen of 20 mg sc doses on Days 1, 7 and 14) or teriflunomide 14 mg orally once daily, for up to 30 months. […] Patients aged 18-55 years with an Expanded Disability Status Scale (EDSS) score (according to Kurtzke, Neurology. 1983, Nov; 33(11): 1444-52) of 0-5.5 at screening who experienced ≥1 relapse in the past year or ≥2 relapses in the past 2 years or a positive gadolinium-enhancing (Gd+) MRI scan during the year before randomisation were included.

[2] = test system: serum IgM; experiment: Serum IgM levels in ASCLEPIOS I/II (Pool C2); format: in vivo, human; details: any time post-baseline, FIG. 9
Description: In the present application serum Ig levels can preferably be determined by immunoturbidimetry. Preferably a Roche cobas® Analyzer was used, especially module c of the cobas® analyser.
(§1) Serum samples were preferably kept at 2-8° C. before measurement.
ASCLEPIOS I and II are double-blind, double-dummy, active comparator-controlled, parallel-group, innovative, adaptive design, multicentre trials. Patients were randomised (1:1) to receive either ofatumumab 20 mg sc injections every 4 weeks (after an initial loading regimen of 20 mg sc doses on Days 1, 7 and 14) or teriflunomide 14 mg orally once daily, for up to 30 months.

[3] = test system: serum IgG; experiment: Serum IgG levels in ASCLEPIOS I/II (Pool C2)
Description: In the present application serum Ig levels can preferably be determined by immunoturbidimetry. Preferably a Roche cobas® Analyzer was used, especially module c of the cobas® analyser. In a preferred embodiment Ig levels can be determined by using a cobas® c 311 analyzer. It is further preferred that IgG measurements are carried out as described in the cobas® leaflet “IGG-2 Tina-quant IgG Gen. 2”, preferably version 11.0 dated 2016-02 and IgM measurements as described in the leaflet “IGM-2 Tina-quant IgM Gen. 2”, preferably version 13.0 dated 2018-11.
as §1
Patients were randomised (1:1) to receive either ofatumumab 20 mg sc injections every 4 weeks (after an initial loading regimen of 20 mg sc doses on Days 1, 7 and 14) or teriflunomide 14 mg orally once daily, for up to 30 months.
(§2) Serum IgG/IgM levels were monitored at baseline, Week (W) 4, W12 and every 12 weeks, see FIG. 1.

[4] = test system: multiple sclerosis patients; experiment: Infections in relation to IgM/IgG levels <LLN vs >=LLN in ofatumumab MS studies
Description: as §2

[5] = test system: IgG levels; experiment: Metanalysis of Example 1 versus Derfuss et al. (pooled OPERA), IgG levels; format: in vivo, human; details: in vivo
Description: In a metanalysis, the results of Example 1 and the results obtained by Derfuss et al. were compared.

[6] = test system: multiple sclerosis patients; details: in vivo; cited from earlier work
[7] = test system: MS patients; details: cited from earlier work
[8] = anytime during post baseline visit
[9] = Ofatumumab N=134, Teriflunomide N=214
[10] = after the last infusion, 51 patients from MS clinical studies

C/C(O)=C(\C#N)C(=O)Nc1ccc(C(F)(F)F)cc1 [teriflunomide]
patients with CD19+ B-cells below LLN ([1]; Week 1): (2.0) % | patients with CD19+ B-cells below LLN, n/M ([1]; Week 1): 9/443 | patients with CD19+ B-cells below LLN ([1]; Week 2): (1.6) % | patients with CD19+ B-cells below LLN, n/M ([1]; Week 2): 7/437 | patients with CD19+ B-cells below LLN ([1]; Week 4): (3.2) % | patients with CD19+ B-cells below LLN, n/M ([1]; Week 4): 14/444 | patients with CD19+ B-cells below LLN ([1]; Week 12): (3.0) % | patients with CD19+ B-cells below LLN, n/M ([1]; Week 12): 13/439 | patients with CD19+ B-cells below LLN ([1]; Week 24): (2.1) % | patients with CD19+ B-cells below LLN, n/M ([1]; Week 24): 9/419 | patients with CD19+ B-cells below LLN ([1]; Week 36): (1.2) % | patients with CD19+ B-cells below LLN, n/M ([1]; Week 36): 5/408 | patients with CD19+ B-cells below LLN ([1]; Week 48): (1.3) % | patients with CD19+ B-cells below LLN, n/M ([1]; Week 48): 5/394 | patients with CD19+ B-cells below LLN ([1]; Week 60): (2.1) % | patients with CD19+ B-cells below LLN, n/M ([1]; Week 60): 8/382 | patients with CD19+ B-cells below LLN ([1]; Week 72): (1.0) % | patients with CD19+ B-cells below LLN, n/M ([1]; Week 72): 3/304 | patients with CD19+ B-cells below LLN ([1]; Week 84): (2.1) % | patients with CD19+ B-cells below LLN, n/M ([1]; Week 84): 4/195 | patients with CD19+ B-cells below LLN ([1]; Week 96): (0.8) % | patients with CD19+ B-cells below LLN, n/M ([1]; Week 96): 1/121 | patients with CD19+ B-cells below LLN ([1]; Week 108): (4.5) % | patients with CD19+ B-cells below LLN, n/M ([1]; Week 108): 3/67 | patients with CD19+ B-cells below LLN, n/M ([1]; Week 120): 0/16 | patients with B-cells below LLN ([1]; throughout the study Treatment epoch): up to 4.5% | patients with IgM levels on or above the LLN [2]: > 90% | change in mean serum IgG value from baseline ([3]; Week 96): -0.421 g/L | decrease in mean IgG value from baseline ([3]; Week 96): 4.1% | patients with IgG levels on or above the LLN ([3]; any time post-baseline, FIG. 9): > 77% | patients with IgG below LLN, n/N [3, 8]: 214/934 | proportion of patients with IgG below LLN [3, 8]: 22.9% | Infections observed after the first drop of IgG<LLN [4, 9]: 36.4% | Infections observed after the first drop of IgG<LLN, number of patients [4, 9]: 78 | patients who reported an infection post study drug discontinuation ([4]; among patients who discontinued treatment for Ig decline): 2 of 7

ocrelizumab: anti-CD20 monoclonal antibody with a humanized antibody backbone, approved for relapsing and primary progressive MS
effect on IgG levels on the long term [5]: leads to a reduction of IgG levels | approximate mean rate of reduction in serum Ig levels [6]: 3-4 % per year | infection rate, association with IgG, first value [6]: 6.50 /100PY | infection rate, association with IgG, second (vs) value [6]: 2.11 /100PY | infection rate, association with IgM, first value [6]: 3.66 /100PY | infection rate, association with IgM, second (vs) value [6]: 1.88 /100PY | median time for B-cell counts to return to either baseline or LLN [7, 10]: 72 weeks | range of time for B-cell counts to return to either baseline or LLN [7, 10]: 27-175 weeks | effect on total immunoglobulins ([7]; in vivo): decrease in total immunoglobulins | malignancies compared to control groups ([7]; in vivo): increased number of malignancies | patients whose B-cell counts rose to either baseline or LLN ([7]; within 2.5 years after the last infusion): 90%
